Format in all cases: functional
For assay [1], the system named is Human immunodeficiency virus 1. Put plainly: Antiviral activity against HIV1 harboring E57A mutant regulatory protein rev isolated from patient with viral infection assessed as CD4 cell count after 48 weeks (reference value: 176/ul).
Assay [2] deals with Human immunodeficiency virus 1. Nature of the assay: Antiviral activity against HIV1 harboring wild type regulatory protein rev isolated from patient with viral infection assessed as change in CD4 cell count after 48 weeks relative to control.
In assay [3] the test system is Human immunodeficiency virus 1. Nature of the assay: Antiviral activity against HIV1 harboring E57A mutant regulatory protein rev isolated from patient with viral infection assessed as viral RNA count after 48 weeks (reference value: 4.9/ml).
The test system of assay [4] is Human immunodeficiency virus 1. Nature of the assay: Antiviral activity against HIV1 harboring wild type regulatory protein rev isolated from patient with viral infection assessed as change in viral RNA count after 48 weeks relative to control.
In assay [5] the test system is Human immunodeficiency virus 1. Nature of the assay: Antiviral activity against HIV1 harboring wild type regulatory protein rev isolated from patient with viral infection assessed as CD4 cell count after 48 weeks (reference value: 146/ul).
The test system of assay [6] is Human immunodeficiency virus 1. Put plainly: Antiviral activity against HIV1 harboring E57A mutant regulatory protein rev isolated from patient with viral infection assessed as change in viral RNA count after 48 weeks relative to control.
Assay [7] has as its system Human immunodeficiency virus 1. Put plainly: Antiviral activity against HIV1 harboring E57A mutant regulatory protein rev isolated from patient with viral infection assessed as change in CD4 cell count after 48 weeks relative to control.
The test system of assay [8] is Human immunodeficiency virus 1. Nature of the assay: Antiviral activity against HIV1 harboring wild type regulatory protein rev isolated from patient with viral infection assessed as viral RNA count after 48 weeks (reference value: 4.9/ml).

The record followed here is ChEMBL document CHEMBL1649129, “Treatment with the fusion inhibitor enfuvirtide influences the appearance of mutations in the human immunodeficiency virus type 1 regulatory protein rev” (2009).

In the case of enfuvirtide, the CD4 count in assay [1] turned out to be 104 cells/µL; in assay [5] it was 192 cells/µL. For the same substance, the “fold change (FC)” value is recorded as 56 in assay [2], -0.84 in assay [4], 0.93 in assay [6] and -42 in assay [7]. The Activity in assay [3] was 5.4 log10 copies/mL; in assay [8], 4.4 log10 copies/mL.
